# Results reported in US11576913B2 (priority 2018, dated 2023).
# Read-outs that look alike come from different tables or passages of the source.
# Assays:
# [1] = format: in vivo, rat; conditions: within 48 hours of oral dosing
# From the text: Specifically, liquid scintillation counting (“LSC”) was used for the determination of total radiolabeled Compound (1C) material, i.e., the original or parent compound and its metabolites. […] Using ^14C as a radiolabel for pharmacokinetic studies is a recognized technique and embedding the radiolabel into the ring structure was done to limit migration or exchange of the radiolabel to non-Compound (1C)-related molecules. The specific radioactivity for the lot of [^14C]-Compound (1C) synthesized was 2.50 MBq/mg (67.6 μCi/mg) [3.49 MBq/mg (94.4 μCi/mg) if the material were to be present as the free base form] with a radiochemical purity of greater than 98.5% as determined by HPLC. The synthesized radiolabeled [^14C]-Compound (1C) was stored away from light at a temperature of −80° C. before use.
# Following oral administration of [^14C]-Compound (1C) (in an appropriate vehicle, e.g., a methyl cellulose suspension) to the experimental animals, excreta samples were collected over specified time intervals. Urine samples were collected at fixed intervals post dosing. Fecal samples were homogenized and diluted prior to being solubilized. Aliquots of these samples were counted following the addition of liquid scintillation fluid thereto. Detection limits for radioactivity in the excreta samples were set at twice the background count (from blank samples) as determined by LSC. The [^14C]-Compound (1C) was stable for about 4-5 hours in urine at a temperature of about 25° C. and, when kept refrigerated at 4° C., for up to 15 days (rat urine) and 36 days (dog urine). Recovery of [^14C]-Compound (1C) from rat urine was typically from about 91.6 to about 99.1%.
# [2] = test system: healthy, non-dependent, recreational sedative users; assay: Human abuse potential study, adverse events and tolerability; format: in vivo; conditions: for Amnesia / Ataxia / Diplopia / Dizziness / Euphoric mood / Headache / Hiccups / Nausea / Somnolence / Vision blurred: N = 50
# Method: Adverse events were coded to MedDRA terms. Data for AEs were analyzed using the treatment-emergent signs and symptoms (TESS) philosophy. Treatment-emergent signs and symptoms are defined as AEs that: • Emerge during treatment, having been absent at pretreatment; or • Reemerge during treatment, having been present at pretreatment but stopped prior to treatment; or • Worsen in intensity during treatment relative to the pretreatment state, when the AE is continuous.
# Subjects were counted only once in the incidence count for a specific MedDRA Preferred Term, although a MedDRA Preferred Term might be reported more than once for a particular subject. Separate summaries will be provided for Treatment-emergent AEs (“TEAEs”) by maximum intensity (mild, moderate, severe) and relationship (yes, no) to study drug. A TEAE was considered related to study drug if the investigator reported the event to be “definitely, probably, possibly, or unlikely” related to treatment on the CRF.
smiles,measurement,setting,value
O=C(O)c1nc2ccccc2n([C@H]2C[C@H]3CCC[C@@H](C2)N3C2CC3CCCC(C3)C2)c1=O (stereo partly drawn) [Compound (1C)],"Average % Elimination, Fecal",[1]; Rat (female),27.9%
same,"Average % Elimination, Fecal + Urinary",[1]; Rat (female),94.7%
same,"Average % Elimination, Urinary",[1]; Rat (female),66.8%
same,"Average % Elimination, Fecal",[1]; Rat (male),41.6%
same,"Average % Elimination, Fecal + Urinary",[1]; Rat (male),96.0%
same,"Average % Elimination, Urinary",[1]; Rat (male),54.4%
same,AE profile compared with triazolam,[2]; 1 mg,more preferable AE profile than triazolam
same,Amnesia,[2]; 1 mg,0 n (%)
same,Ataxia,[2]; 1 mg,1 (2) n (%)
same,Diplopia,[2]; 1 mg,0 n (%)
same,Dizziness,[2]; 1 mg,2 (4) n (%)
same,Euphoric mood,[2]; 1 mg,0 n (%)
same,Headache,[2]; 1 mg,5 (10) n (%)
same,Hiccups,[2]; 1 mg,0 n (%)
same,Nausea,[2]; 1 mg,1 (2) n (%)
same,Somnolence,[2]; 1 mg,20 (40) n (%)
same,Vision blurred,[2]; 1 mg,0 n (%)
same,AE profile compared with triazolam,[2]; 6 mg,"AE profile than triazolam, and Compound (1C) at 6 and 10 mg doses had similar profiles as triazolam"
same,"certain AE results (ataxia, hiccups, amnesia, diplopia) compared with triazolam at therapeutic doses",[2]; 6 mg (supratherapeutic dose),superior to triazolam
same,Amnesia,[2]; 6 mg,0 n (%)
same,Ataxia,[2]; 6 mg,7 (14) n (%)
same,Diplopia,[2]; 6 mg,0 n (%)
same,Dizziness,[2]; 6 mg,3 (6) n (%)
same,Euphoric mood,[2]; 6 mg,1 (2) n (%)
same,Headache,[2]; 6 mg,2 (4) n (%)
same,Hiccups,[2]; 6 mg,0 n (%)
same,Nausea,[2]; 6 mg,2 (4) n (%)
same,Somnolence,[2]; 6 mg,45 (90) n (%)
same,Vision blurred,[2]; 6 mg,2 (4) n (%)
same,AE profile compared with triazolam,[2]; 10 mg,"AE profile than triazolam, and Compound (1C) at 6 and 10 mg doses had similar profiles as triazolam"
same,"certain AE results (ataxia, hiccups, amnesia, diplopia) compared with triazolam at therapeutic doses",[2]; 10 mg (supratherapeutic dose),superior to triazolam
same,Amnesia,[2]; 10 mg,0 n (%)
same,Ataxia,[2]; 10 mg,13 (26) n (%)
same,Diplopia,[2]; 10 mg,2 (4) n (%)
same,Dizziness,[2]; 10 mg,5 (10) n (%)
same,Euphoric mood,[2]; 10 mg,1 (2) n (%)
same,Headache,[2]; 10 mg,2 (4) n (%)
same,Hiccups,[2]; 10 mg,0 n (%)
same,Nausea,[2]; 10 mg,2 (4) n (%)
same,Somnolence,[2]; 10 mg,47 (94) n (%)
same,Vision blurred,[2]; 10 mg,3 (6) n (%)
same,safety and tolerability,"[2]; doses 1, 6 and 10 mg",well tolerated
